Like-named read-outs stand apart in the source and are kept apart here. Peptide text beside a SMILES is read from it. * marks the point of attachment. Cbz = O=C(OCc1ccccc1)*; NHtBu = CC(C)(C)N*
Assays:
HIV-1 protease [1] = target: T1, HIV-1 protease (Human immunodeficiency virus type 1 group M subtype B, UniProt P03369); assay: HIV protease inhibition, fluorogenic peptide substrate cleavage (IC50 and Ki); assay type: biochemical; settings: for IC50: read-out: HIV PR IC50; for Ki: read-out: HIV PR Ki
T1 construct: HIV PR is a 99 amino acid aspartyl protease which functions as a homodimer; made in house; host or cells: no host: total chemical synthesis
Description: The solution was mixed and incubated over 5 minutes during which time the rate of substrate cleavage was monitored by continuously recording the change in fluorescence of the assay solution. An excitation filter of 325 nm, and an emission filter of 420 nm were used.
Determination of Ki for HIV protease was performed similarly with the following modifications. The substrate concentrations used were 57, 43, 28 and 14 μM. All other concentrations were as above. The curve fit for the data was determined and the subsequent Ki derived using a computer program based on the equation of Morrison et. al. BioChim. Biophys. ACTA 1969, 185, 269, for tight binding inhibitors.
The synthetic HIV-protease containing a thioester linkage available from CalBiochem (San Diego) can also be used. The enzyme activity was assayed with the fluorogenic substrate Ac-Thr-Ile-Nle-Phe(P—NO2)-Gln-Arg-NH2 (from CalBiochem, San Diego) according to the procedure described in the literature. Inhibition analysis was performed in the presence of the inhibitor and expressed with IC50 (the concentration of inhibitor that causes 50% inhibition of the enzyme activity).

FIV protease = target: T2, FIV protease (Feline immunodeficiency virus, UniProt P16088); assay: FIV protease inhibition, peptide substrate cleavage by HPLC (IC50 and Ki); assay type: biochemical
T2 construct: an 18.6 kDa precursor, which auto-processed to a 13.2 kDa FIV PR plus N- and C-terminal fragments; made in house; host or cells: E. coli BL21.DE3, lys S (pT7-7 vector)
Description: For determination of K1 and IC50 for FIV protease, 0.125 μg of the enzyme was added to a solution (100 μL final volume) containing inhibitor, 560 μM peptide substrate (sequence Gly-Lys-Glu-Glu-Gly-Pro-Pro-Gln-Ala-Tyr-Pro-Ile-Gln-Thr-Val-Asn-Gly) and 2% dimethyl sulfoxide in a 1:3 mixture of assay buffer (as above) and 4M NaClaq. solution. The solution was mixed and incubated for 10 minutes at 37° C. and the reaction quenched by addition of 8 M guanidine HCl solution containing 0.2 M sodium acetate at pH 4.2 (100 μL). The cleavage products and substrate were separated by reverse phase HPLC. Absorbance was measured at 215 nm, peak areas were determined and percent conversion to product was calculated using relative peak areas. The data were plotted as 1/V (V=rate substrate is cleaved in nmol/min) against inhibitor concentration and the—Ki determined as the point at which the resulting line intersects with 1/Vmax (Vmax=6.85 nmol/min). IC50 was determined as the inhibitor concentration at 50% inhibition. Vmax (6.85±0.7 nmol min^−1) and Km (707±70 μM) for FIV protease were determined from a plot of 1/V (V=rate in nmol/min) against 1/[S] ([S]=substrate concentration in […]). The data used was generated similarly to that for Ki with the following modifications. The substrate concentrations used were 560, 448, 336, 224, 111 and 56 μM, in the absence of inhibitor.
Purification of FIV protease: A 503 base pair Eco Rl-Bam Hl fragment containing the coding sequence of FIV protease was cloned from FIV-34TF10 (Talbott et. al. Proc. Natl. Acad. Sci. USA 86 1989, 5743) into the pT7-7 vector (Tabor et. al. Proc. Natl. Acad. Sci USA 82 1985, 1074). The 5′ end of the insert was modified by the addition of an Ndel adaptor, which provided the proper reading frame with initiation of translation from the methionine encoded in the latter site. […] The construct was transformed into E. coli strain BL21.DE3, lys S (Studier et. al. Meth. Enzymol. 1990, 185, 60) and overnight cultures were used to inoculate 15 liter fermentations, performed using Circlegrow medium (Bio 101) plus […] ampicillin, 20 μM chloramphenicol, at 37° C. The cells were allowed to reach mid-log phase, then the temperature was reduced to 24° C. and IPTG (isopropylB-thiogalactopyranoside) was added to a final concentration of 1 mM. The fermentation was allowed to proceed for 16 hours, at which time the cells were harvested by centrifugation and frozen at −70° C. in 100 g aliquots for future use.
Cells (100 g) were lysed by addition of 600 mL, 50 mM Tris-HCl, pH 8, 5 mM EDTA and 2 mM 2-mercaptoethanol to the frozen pellet. The cells lysed upon thawing and the viscous mixture was homogenized at 4° C. for 2 min in a Waring blender. The sample was centrifuged at 8,000×g for 20 min and the pellet discarded. […]

HIV-1 protease [2] = target: T1, HIV-1 protease; settings: known HIV PR inhibitor; cited from earlier work
[3] = 13C NMR study of hydration of the ketone moiety in the presence of water; assay type: physicochemical; settings: deuterated DMSO/D2O (5:1), incubation for 24 hours
Description: The ketone moiety of the α-keto amide 2 is disclosed to be hydrated and is hydrogen bonding in a similar manner to that of compound 23.

For `CSC[C@H](NC(=O)COc1cccc2cnccc12)C(=O)N[C@@H](Cc1ccccc1)[C@H](O)C(=O)N1CSC[C@H]1C(=O)NC(C)(C)C` [KNI-272, reference compound], the “Ki against HIV PR relative to compound 2” value (HIV-1 protease [1]; compared with 2) was “almost five orders of magnitude lower”.

`COC(=O)[C@@H]1CCCN1C(=O)C(=O)C(Cc1ccccc1)NC(=O)OC(C)(C)C` (stereo partly shown) [Compound 1] showed an IC50 (HIV-1 protease [1]) of 6 µM and a Ki (HIV-1 protease [1]) of 6 µM.

Work on `CO[C@H]1CC(C(=O)NC(C)(C)C)N(C[C@@H](O)[C@H](Cc2ccccc2)NC(=O)OCc2ccccc2)C1` (stereo partly drawn) [Compound 9, N-(1-Phenyl-2(S)-[(benzyloxycarbonyl)amino]-3(R)-hydroxybutan-4-(tert-butylamido)-4′(S)-methoxy]-pyrrolidine] yielded an IC50 (HIV-1 protease [1]) of 17 µM.

Work on `CC(C)(C)NC(=O)[C@@H]1CCCN1C(=O)[C@H](O)[C@H](Cc1ccccc1)NC(=O)OCc1ccccc1` [Compound 23, (2S, 3R) and (2S, 3S) 3-(N-Benzyloxycarbonyl)amino-2-hydroxy-4-phenylbutyryl-L-prolyl-tert-butyl Amide] yielded an IC50 (HIV-1 protease [1]) of 300 µM.

`COC[C@H]1CCCN1C[C@@H](O)[C@H](Cc1ccccc1)NC(=O)OCc1ccccc1` [Compound 7] gave an IC50 (HIV-1 protease [1]) of 1600 µM.

For `CC(C)(C)NC(=O)C1CCCN1C(=O)C(Cc1ccccc1)NC(=O)OCc1ccccc1` (stereo not drawn) [Cbz-Phe-Pro-NBu^t] (Cbz-Phe-Pro-NHtBu; configuration not given here), the “cleavage by HIV protease” value (HIV-1 protease [1]; normal assay conditions) was “not cleaved” and the “cleavage by FIV protease” value (FIV protease; normal assay conditions) was “not cleaved”.

For “(2S, 3R) and (2S, 3S) 3-(N-Benzyloxycarbonyl)amino-2-hydroxy-4-phenylbutyryl-L-prolyl-tert-butyl Amide [Compound 24]”, the IC50 (HIV-1 protease [1]) was 2 µM.

In the case of `COCC1CCC(COC)N1CC(O)C(Cc1ccccc1)NC(=O)OCc1ccccc1` [Compound 5, N-[1-Phenyl-2(S)-[(benzyloxycarbonyl)amino]-3(R)-hydroxybutan-4-[2′ (R), 5′ (R)-bis(methoxymethyl)]-pyrrolidine], the IC50 (HIV-1 protease [1]) is reported as 1800 µM.

For `CO[C@@H]1C[C@@H](C(=O)NC(C)(C)C)N(C[C@@H](O)[C@H](Cc2ccccc2)NC(=O)OCc2ccccc2)C1` [Compound 10], the IC50 (HIV-1 protease [1]) was 2.9 µM.

In the case of `O=C1N(Cc2ccc(CO)cc2)[C@H](Cc2ccccc2)[C@H](O)[C@@H](O)[C@@H](Cc2ccccc2)N1Cc1ccc(CO)cc1` [DMP 323], the IC50 (HIV-1 protease [2]) is given as 0.036 µM and the Ki (HIV-1 protease [2]) is given as 0.00027 µM.

`COCC1C(OC)C(OC)C(COC)N1CC(O)C(Cc1ccccc1)NC(=O)OCc1ccccc1` [Compound 6, N-[1-Phenyl-2(S)-[(benzyloxycarbonyl)amino]-3(R)-hydroxybutan-4-[2′(R), 5′(R)-bis(methoxymethyl)-3′(R), 4′(S)-dimethoxy]-pyrrolidine] gave an IC50 (HIV-1 protease [1]) of 100 µM.

Work on `CC(C)(C)NC(=O)[C@@H]1C[C@@H](OCc2ccccc2)CN1C[C@@H](O)[C@H](Cc1ccccc1)NC(=O)OCc1ccccc1` [Compound 11] yielded an IC50 (HIV-1 protease [1]) of 3.9 µM.

With `CC(C)(C)NC(=O)[C@@H]1CCCN1C[C@@H](O)[C@H](Cc1ccccc1)NC(=O)OCc1ccccc1` [Compound 8] the IC50 (HIV-1 protease [1]) was 60 µM.

Compound `COC[C@@H]1[C@@H](OC)[C@H](OC)[C@H](COC)N1C(=O)C(=O)C(Cc1ccccc1)NC(=O)OCc1ccccc1` (mixture of isomers) [Compound 12, (3S) and (3R) 3-(N-Benzyloxycarbonyl)amino-2-keto-4-phenylbutyryl-(2′(R), 5′(R)-bis(methoxymethyl]-3′(R), 4′(S)-dimethoxypyrrolidine]] has an IC50 (HIV-1 protease [1]) of 20 µM and a Ki (HIV-1 protease [1]) of 20 µM.

In the case of `CC(C)(C)NC(=O)[C@@H]1CCCN1C(=O)C(=O)C(Cc1ccccc1)NC(=O)OCc1ccccc1` (mixture of isomers) [Compound 2, (3S) and (3R) 3-(N-Benzyloxycarbonyl)amino-2-keto-4-phenylbutyryl-L-prolyl-tert-butyl Amide], the “fold better than the corresponding hydroxyethylamine isosteric structure as inhibitor of the HIV protease” value (HIV-1 protease [1]) is reported as “approximately 300 fold”, the “fold better than the corresponding phosphinic acid derivative as inhibitor of the HIV protease” value (HIV-1 protease [1]) is reported as ~1300 fold and the IC50 (HIV-1 protease [1]) is reported as 0.7 µM. For the same compound, the Ki (HIV-1 protease [1]) was 0.214 µM, the “time dependent inhibition of HIV PR” value (HIV-1 protease [1]; time dependent assays) was “do not exhibit time dependent inhibition” and the “hydration of the ketone moiety in the presence of water” value [3] was “remains unhydrated”. The “inhibitory effect against FIV PR” value (FIV protease; added in concentrations up to 70 mM) was “no inhibitory effect”.

For `CC[C@H](C)[C@H](NC(=O)[C@@H]1CCCN1C(=O)C(=O)C(Cc1ccccc1)NC(=O)OCc1ccccc1)C(=O)N[C@@H](CCC(N)=O)C(=O)OC(C)(C)C` (mixture of isomers) [Compound 4], the Ki (HIV-1 protease [1]) was 0.154 µM, the IC50 (FIV protease; read-out: FIV PR IC50) was 25 µM and the Ki (FIV protease; read-out: FIV PR Ki) was 29 µM.
